Experimental data taken from patent US8969325B2, “TRPV1 antagonists” (AbbVie Inc., priority 2011, dated 2015).
pIC50: −log10 of the molar value.

What was measured:
[1] = target: T1, human TRPV1 (Homo sapiens (Human), UniProt Q8NER1); experiment: Acid Activation Assay (pH 5.0, intracellular Ca2+, FLIPR); type: cell-based; details: percentage of the maximal pH 5.0-induced response remaining; recombinant HEK293 hTRPV1 cells; maximum concentration tested 37.5 μM
Outline: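 Readout: peak [Ca2+]i fluorescence over baseline on FLIPR, expressed as percentage remaining of the maximal pH 5.0-evoked signal. Stable hTRPV1-HEK293 cells with Calcium-4 dye received compound (12 half-log concentrations, maximum 37.5 μM) 3 min before acidic pH 5.0 buffer.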

[2] = target: T1, human TRPV1; experiment: Capsaicin Activation Assay (intracellular Ca2+, FLIPR); type: cell-based; details: recombinant HEK293 cells expressing hTRPV1, 50 nM capsaicin
Outline: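 Ca2+ fluorescence was recorded by FLIPR every 1 to 5 seconds in HEK293 cells, clonally selected for stable human TRPV1 expression and plated one day ahead. Test compounds came as serial dilutions of 10 mM DMSO stocks.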

T1 sequence (Q8NER1 whole entry): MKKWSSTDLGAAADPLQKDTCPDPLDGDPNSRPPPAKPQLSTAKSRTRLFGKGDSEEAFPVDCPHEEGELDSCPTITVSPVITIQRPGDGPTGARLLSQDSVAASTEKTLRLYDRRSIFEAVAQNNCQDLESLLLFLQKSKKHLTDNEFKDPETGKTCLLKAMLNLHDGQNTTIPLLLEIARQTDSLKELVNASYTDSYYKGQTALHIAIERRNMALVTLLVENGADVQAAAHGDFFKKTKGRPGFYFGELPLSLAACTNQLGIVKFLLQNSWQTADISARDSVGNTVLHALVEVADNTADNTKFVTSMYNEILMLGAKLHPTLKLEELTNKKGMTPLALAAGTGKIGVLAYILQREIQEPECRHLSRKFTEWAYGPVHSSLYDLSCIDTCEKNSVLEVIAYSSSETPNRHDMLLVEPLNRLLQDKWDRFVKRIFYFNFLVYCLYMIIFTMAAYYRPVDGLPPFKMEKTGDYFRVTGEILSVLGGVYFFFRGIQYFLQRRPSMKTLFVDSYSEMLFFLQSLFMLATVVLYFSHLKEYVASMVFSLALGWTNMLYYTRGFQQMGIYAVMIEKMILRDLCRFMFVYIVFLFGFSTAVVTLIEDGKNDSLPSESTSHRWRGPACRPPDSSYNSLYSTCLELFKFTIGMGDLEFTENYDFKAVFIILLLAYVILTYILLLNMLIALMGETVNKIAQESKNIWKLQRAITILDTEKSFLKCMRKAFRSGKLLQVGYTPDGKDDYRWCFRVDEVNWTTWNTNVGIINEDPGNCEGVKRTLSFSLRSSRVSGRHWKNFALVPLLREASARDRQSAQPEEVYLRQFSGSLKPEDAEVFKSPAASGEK

SMILES	human TRPV1 H^+ (max % remain) [1] [%]	pIC50 [2]
Cn1c(=O)ccc2c(NC(=O)N[C@H]3CC(C)(C)Oc4ccc(F)cc43)cccc21 [Example 98, 1-[(4S)-6-fluoro-2,2-dimethyl-3,4-dihydro-2H-chromen-4-yl]-3-(1-methyl-2-oxo-1,2-dihydroquinolin-5-yl)urea]	58	5.43
CN1C(=O)NCc2c(NC(=O)N[C@@H]3CC(CF)(CF)Oc4ccc(F)cc43)cccc21 [Example 152, 1-[(4R)-6-fluoro-2,2-bis(fluoromethyl)-3,4-dihydro-2H-chromen-4-yl]-3-(1-methyl-2-oxo-1,2,3,4-tetrahydroquinazolin-5-yl)urea]	22	6.33
CCC1(CC)C[C@@H](NC(=O)Nc2ccc3c(c2)NC(=O)CO3)c2ccccc2O1 [Example 102, 1-[(4R)-2,2-diethyl-3,4-dihydro-2H-chromen-4-yl]-3-(3-oxo-3,4-dihydro-2H-1,4-benzoxazin-6-yl)urea]	99	7.36
CCCC1(CCC)C[C@@H](NC(=O)Nc2ccc3c(c2)NC(=O)N(CCO)C3)c2cccc(F)c2O1 [Example 311, 1-[(4R)-8-fluoro-2,2-dipropyl-3,4-dihydro-2H-chromen-4-yl]-3-[3-(2-hydroxyethyl)-2-oxo-1,2,3,4-tetrahydroquinazolin-7-yl]urea]	14	6.82
CN1C(=O)CCc2ccc(NC(=O)N[C@@H]3CC(CF)(CF)Oc4cc(C(F)(F)F)ccc43)cc21 [Example 263, 1-[(4R)-2,2-bis(fluoromethyl)-7-(trifluoromethyl)-3,4-dihydro-2H-chromen-4-yl]-3-(1-methyl-2-oxo-1,2,3,4-tetrahydroquinolin-7-yl)urea]	51	6.30
O=C1CCc2ccc(NC(=O)N[C@@H]3CC(CF)(CF)Oc4c3ccc(Cl)c4F)cc2N1 [Example 231, 1-[(4R)-7-chloro-8-fluoro-2,2-bis(fluoromethyl)-3,4-dihydro-2H-chromen-4-yl]-3-(2-oxo-1,2,3,4-tetrahydroquinolin-7-yl)urea]	55	7.12
O=C(Nc1ccc2c(c1)NC(=O)N(CCO)C2)N[C@@H]1CC(CF)(CF)Oc2cc(F)ccc21 [Example 319, 1-[(4R)-7-fluoro-2,2-bis(fluoromethyl)-3,4-dihydro-2H-chromen-4-yl]-3-[3-(2-hydroxyethyl)-2-oxo-1,2,3,4-tetrahydroquinazolin-7-yl]urea]	21	5.30
CN1C(=O)CCc2ccc(NC(=O)N[C@H]3CCOc4cc(OC(F)(F)F)ccc43)cc21 [Example 276, 1-(1-methyl-2-oxo-1,2,3,4-tetrahydroquinolin-7-yl)-3-[(4S)-7-(trifluoromethoxy)-3,4-dihydro-2H-chromen-4-yl]urea]	77	7.36
CN1C(=O)CCc2ccc(NC(=O)N[C@@H]3CC(CF)(CF)Oc4c3ccc(Cl)c4F)cc21 [Example 273, 1-[(4R)-7-chloro-8-fluoro-2,2-bis(fluoromethyl)-3,4-dihydro-2H-chromen-4-yl]-3-(1-methyl-2-oxo-1,2,3,4-tetrahydroquinolin-7-yl)urea]	55	6.68
O=C(Nc1ccc2c(c1)NC(=O)N(CCO)C2)N[C@@H]1CC2(CCCC2)Oc2ccccc21 [Example 317, 1-[(4R)-3,4-dihydrospiro[chromene-2,1′-cyclopentan]-4-yl]-3-[3-(2-hydroxyethyl)-2-oxo-1,2,3,4-tetrahydroquinazolin-7-yl]urea]	17	6.22
C[C@@]1(C(F)(F)F)C[C@@H](NC(=O)Nc2ccc3c(c2)NC(=O)CC3)c2ccccc2O1 [Example 245, 1-[(2S,4R)-2-methyl-2-(trifluoromethyl)-3,4-dihydro-2H-chromen-4-yl]-3-(2-oxo-1,2,3,4-tetrahydroquinolin-7-yl)urea]	28	6.55
O=C1COc2ccc(NC(=O)N[C@@H]3CCOc4c3cccc4C(F)(F)F)cc2N1 [Example 120, 1-(3-oxo-3,4-dihydro-2H-1,4-benzoxazin-6-yl)-3-[(4R)-8-(trifluoromethyl)-3,4-dihydro-2H-chromen-4-yl]urea]	103	6.70
COCCN(C)C1Cc2ccc(NC(=O)N[C@@H]3CC(CF)(CF)Oc4cc(Cl)ccc43)cc2NC1=O (stereo partly drawn) [Example 306, 1-[(4R)-7-chloro-2,2-bis(fluoromethyl)-3,4-dihydro-2H-chromen-4-yl]-3-{3-[(2-methoxyethyl)(methyl)amino]-2-oxo-1,2,3,4-tetrahydroquinolin-7-yl}urea]	31	6.36
CCC1(CC)C[C@@H](NC(=O)Nc2ccc3c(c2)NC(=O)CO3)c2cc(F)ccc2O1 [Example 109, 1-[(4R)-2,2-diethyl-6-fluoro-3,4-dihydro-2H-chromen-4-yl]-3-(3-oxo-3,4-dihydro-2H-1,4-benzoxazin-6-yl)urea]	92	6.89
CC1(C)C[C@@H](NC(=O)Nc2ccc3c(c2)NC(=O)CC3)c2ccc(C(F)(F)F)nc2O1 [Example 247, 1-[(4R)-2,2-dimethyl-7-(trifluoromethyl)-3,4-dihydro-2H-pyrano[2,3-b]pyridin-4-yl]-3-(2-oxo-1,2,3,4-tetrahydroquinolin-7-yl)urea]	18	7.42
Cn1c(=O)ccc2c(NC(=O)N[C@@H]3CC(C)(C)Oc4c(F)cccc43)cccc21 [Example 94, 1-[(4R)-8-fluoro-2,2-dimethyl-3,4-dihydro-2H-chromen-4-yl]-3-(1-methyl-2-oxo-1,2-dihydroquinolin-5-yl)urea]	53	7.72
CN1C(=O)CCc2ccc(NC(=O)N[C@@H]3CC(CF)(CF)Oc4cc(F)ccc43)cc21 [Example 296, 1-[(4R)-7-fluoro-2,2-bis(fluoromethyl)-3,4-dihydro-2H-chromen-4-yl]-3-(1-methyl-2-oxo-1,2,3,4-tetrahydroquinolin-7-yl)urea]	68	6.89
C[C@]1(C(F)F)C[C@@H](NC(=O)Nc2ccc3c(c2)NC(=O)CC3)c2ccccc2O1 [Example 249, 1-[(2R,4R)-2-(difluoromethyl)-2-methyl-3,4-dihydro-2H-chromen-4-yl]-3-(2-oxo-1,2,3,4-tetrahydroquinolin-7-yl)urea]	28	6.96
CN1C(=O)CCc2ccc(NC(=O)N[C@@H]3CC(C)(C)Oc4c3ccc(F)c4Cl)cc21 [Example 275, 1-[(4R)-8-chloro-7-fluoro-2,2-dimethyl-3,4-dihydro-2H-chromen-4-yl]-3-(1-methyl-2-oxo-1,2,3,4-tetrahydroquinolin-7-yl)urea]	83	6.04
CN1Cc2ccc(NC(=O)N[C@@H]3CCOc4cc(OC(F)(F)F)ccc43)cc2NC1=O [Example 195, 1-(3-methyl-2-oxo-1,2,3,4-tetrahydroquinazolin-7-yl)-3-[(4R)-7-(trifluoromethoxy)-3,4-dihydro-2H-chromen-4-yl]urea]	49	6.55
CN1Cc2ccc(NC(=O)N[C@@H]3CC(C)(C)Oc4ccccc43)cc2NC1=O [Example 193, 1-[(4R)-2,2-dimethyl-3,4-dihydro-2H-chromen-4-yl]-3-(3-methyl-2-oxo-1,2,3,4-tetrahydroquinazolin-7-yl)urea]	56	6.57
CN1Cc2ccc(NC(=O)N[C@@H]3CC4(CCC4)Oc4ccc(F)cc43)cc2NC1=O [Example 188, 1-[(4R)-6-fluoro-3,4-dihydrospiro[chromene-2,1′-cyclobutan]-4-yl]-3-(3-methyl-2-oxo-1,2,3,4-tetrahydroquinazolin-7-yl)urea]	46	6.54
CN1C(=O)CCc2ccc(NC(=O)N[C@@H]3C[C@](C)(CF)Oc4cc(C(F)(F)F)ccc43)cc21 [Example 290, 1-[(2R,4R)-2-(fluoromethyl)-2-methyl-7-(trifluoromethyl)-3,4-dihydro-2H-chromen-4-yl]-3-(1-methyl-2-oxo-1,2,3,4-tetrahydroquinolin-7-yl)urea]	68	7.82
CCC1(CC)C[C@@H](NC(=O)Nc2ccc3c(c2)NC(=O)CO3)c2ccc(Cl)cc2O1 [Example 104, 1-[(4R)-7-chloro-2,2-diethyl-3,4-dihydro-2H-chromen-4-yl]-3-(3-oxo-3,4-dihydro-2H-1,4-benzoxazin-6-yl)urea]	80	6.70
CN1C(=O)NCc2c(NC(=O)N[C@@H]3CC(C)(C)Oc4c(F)cccc43)cccc21 [Example 135, 1-[(4R)-8-fluoro-2,2-dimethyl-3,4-dihydro-2H-chromen-4-yl]-3-(1-methyl-2-oxo-1,2,3,4-tetrahydroquinazolin-5-yl)urea]	32	7.51
O=C(Nc1ccc2c(c1)NC(=O)N(CCO)C2)N[C@@H]1CC(CF)(CF)Oc2cc(C(F)(F)F)ccc21 [Example 309, 1-[(4R)-2,2-bis(fluoromethyl)-7-(trifluoromethyl)-3,4-dihydro-2H-chromen-4-yl]-3-[3-(2-hydroxyethyl)-2-oxo-1,2,3,4-tetrahydroquinazolin-7-yl]urea]	36	4.74
C[C@]1(C(F)F)C[C@@H](NC(=O)Nc2ccc3c(c2)NC(=O)N(CCO)C3)c2ccccc2O1 [Example 60, 1-[(2R,4R)-2-(difluoromethyl)-2-methyl-3,4-dihydro-2H-chromen-4-yl]-3-[3-(2-hydroxyethyl)-2-oxo-1,2,3,4-tetrahydroquinazolin-7-yl]urea]	9	5.89
